Measurements from patent publication US8894927B2, “Shower sterilisation system and method of use thereof” (Omnia-Klenz Ltd., priority 2010, dated 2014).
Read-outs that look alike come from different tables or passages of the source.

What was measured:
[1] = tested on: aerobic counts of shower water; test: Hadfield office shower head, Petrifilm aerobic count after biocide treatment; conditions: for Mb. Analyses Aerobic: 30 min contact
Legionella pneumophilia = type: cell-based
Mycobacteria = conditions: against Mycobacteria; cited from earlier work
[2] = tested on: microbiological activity in shower apparatus; test: Treatment of shower apparatus, microbiological activity / TVC; conditions: solution of around 250-500 ppm
From the text: The fall in TVCs or “kill” of the micro-activity following use of the first biocidal product alone or following a combination of use of the first biocidal product and second acidic sequestering product is similar but the time before significant re-inoculation is extended when the combination of the first and second compositions are used. In areas of high water hardness, the potential for re-inoculation is much higher than in areas of low water hardness and therefore the benefit of using an acidic sequestering product in combination with the biocidal product is much higher.
The biocidial composition of the present invention results in a fall in TVC from a starting level of approximately 10^5 cfu/ml to 20-500 cfu/ml.

Legionella = conditions: cited from earlier work
Hepatatis = conditions: against Hepatatis; cited from earlier work
HIV = conditions: against HIV; cited from earlier work
[3] = tested on: yeast and mold counts of shower water; test: Hadfield office shower head, Petrifilm yeast and mold count after biocide treatment; conditions: 30 min contact
[4] = 0.5% solution, 555 ppm, 8 days (192 hours) since biocide first added, (1) Resting (8 days), 16 °C
[5] = 0.5% solution, 555 ppm, 8 days (192 hours) since biocide first added, (2) Shower running, 10 °C
[6] = 0.5% solution, 555 ppm, 8 days (192 hours) since biocide first added, (3) Shower running, 15 °C
[7] = 0.5% solution, 555 ppm, 8 days (192 hours) since biocide first added, (4) Shower running, 20 °C
[8] = 0.5% solution, 555 ppm, 8 days (192 hours) since biocide first added, (5) Shower running, 25 °C
[9] = 0.5% solution, 555 ppm, 8 days (192 hours) since biocide first added, (6) Shower running, 30 °C
[10] = 0.5% solution, 555 ppm, 8 days (192 hours) since biocide first added, (7) Shower running, 35 °C
[11] = 0.5% solution, 555 ppm, 8 days (192 hours) since biocide first added, (8) Shower running, 40 °C
[12] = 0.5% solution, 555 ppm, 8 days (192 hours) since biocide first added, (9) Shower running - full heat, 41 °C
[13] = 0.5% solution, 565 ppm, 24 hours after biocide addition, (1) Resting, 15 °C
[14] = 0.5% solution, 565 ppm, 24 hours after biocide addition, (2) Shower running, 10 °C
[15] = 0.5% solution, 565 ppm, 24 hours after biocide addition, (3) Shower running, 15 °C
[16] = 0.5% solution, 565 ppm, 24 hours after biocide addition, (4) Shower running, 20 °C
[17] = 0.5% solution, 565 ppm, 24 hours after biocide addition, (5) Shower running, 25 °C
[18] = 0.5% solution, 565 ppm, 24 hours after biocide addition, (6) Shower running, 30 °C
[19] = 0.5% solution, 565 ppm, 24 hours after biocide addition, (7) Shower running, 35 °C
[20] = 0.5% solution, 565 ppm, 24 hours after biocide addition, (8) Shower running, 40 °C
[21] = 0.5% solution, 565 ppm, 24 hours after biocide addition, (9) Shower running, 41 °C
[22] = 0.5% solution, 565 ppm, 48 hours after biocide addition, (1) Resting, 16 °C
[23] = 0.5% solution, 565 ppm, 48 hours after biocide addition, (2) Shower running, 10 °C
[24] = 0.5% solution, 565 ppm, 48 hours after biocide addition, (3) Shower running, 15 °C
[25] = 0.5% solution, 565 ppm, 48 hours after biocide addition, (4) Shower running, 20 °C
[26] = 0.5% solution, 565 ppm, 48 hours after biocide addition, (5) Shower running, 25 °C
[27] = 0.5% solution, 565 ppm, 48 hours after biocide addition, (6) Shower running, 30 °C
[28] = 0.5% solution, 565 ppm, 48 hours after biocide addition, (7) Shower running, 35 °C
[29] = 0.5% solution, 565 ppm, 48 hours after biocide addition, (8) Shower running, 40 °C
[30] = 0.5% solution, 565 ppm, 48 hours after biocide addition, (9) Shower running, 41 °C
[31] = 0.05% solution, 5 ppm, 24 hours after biocide addition, (1) Resting, 18 °C
[32] = 0.05% solution, 5 ppm, 24 hours after biocide addition, (2) Shower running, 10 °C
[33] = 0.05% solution, 5 ppm, 24 hours after biocide addition, (3) Shower running, 15 °C
[34] = 0.05% solution, 5 ppm, 24 hours after biocide addition, (4) Shower running, 20 °C
[35] = 0.05% solution, 5 ppm, 24 hours after biocide addition, (5) Shower running, 25 °C
[36] = 0.05% solution, 5 ppm, 24 hours after biocide addition, (6) Shower running, 30 °C
[37] = 0.05% solution, 5 ppm, 24 hours after biocide addition, (7) Shower running, 35 °C
[38] = 0.05% solution, 5 ppm, 24 hours after biocide addition, (8) Shower running, 40 °C
[39] = 0.05% solution, 5 ppm, 24 hours after biocide addition, (9) Shower running - full heat, 43 °C
[40] = 0.05% solution, 5 ppm, 48 hours after biocide addition, (1) Resting, 17 °C
[41] = 0.05% solution, 5 ppm, 48 hours after biocide addition, (2) Shower running, 10 °C
[42] = 0.05% solution, 5 ppm, 48 hours after biocide addition, (3) Shower running, 15 °C
[43] = 0.05% solution, 5 ppm, 48 hours after biocide addition, (4) Shower running, 20 °C
[44] = 0.05% solution, 5 ppm, 48 hours after biocide addition, (5) Shower running, 25 °C
[45] = 0.05% solution, 5 ppm, 48 hours after biocide addition, (6) Shower running, 30 °C
[46] = 0.05% solution, 5 ppm, 48 hours after biocide addition, (7) Shower running, 35 °C
[47] = 0.05% solution, 5 ppm, 48 hours after biocide addition, (8) Shower running, 40 °C
[48] = 0.05% solution, 5 ppm, 48 hours after biocide addition, (9) Shower running - full heat, 42 °C

## CCCCCCCCCCCCN(CCCN)CCCN [Lonzabac 12.100, N-(3-aminopropyl)-N-dodecylpropane-1,3-diamine]
[1]; [4]
  Mb. Analyses Aerobic: 10^5 cols/ml
[1]; [5]
  Mb. Analyses Aerobic: 1 cols/ml
[1]; [6]
  Mb. Analyses Aerobic: 3 cols/ml
[1]; [7]
  Mb. Analyses Aerobic: No growth
[1]; [8]
  Mb. Analyses Aerobic: No growth
[1]; [9]
  Mb. Analyses Aerobic: 9 cols/ml
[1]; [10]
  Mb. Analyses Aerobic: 1 cols/ml
[1]; [11]
  Mb. Analyses Aerobic: No growth
[1]; [12]
  Mb. Analyses Aerobic: 2 cols/ml
[1]; [13]
  Mb. Analyses Aerobic: 60 cols/ml
[1]; [14]
  Mb. Analyses Aerobic: No growth
[1]; [15]
  Mb. Analyses Aerobic: No growth
[1]; [16]
  Mb. Analyses Aerobic: No growth
[1]; [17]
  Mb. Analyses Aerobic: No growth
[1]; [18]
  Mb. Analyses Aerobic: 1 cols/ml
[1]; [19]
  Mb. Analyses Aerobic: No growth
[1]; [20]
  Mb. Analyses Aerobic: 2 cols/ml
[1]; [21]
  Mb. Analyses Aerobic: No growth
[1]; [22]
  Mb. Analyses Aerobic: 520 cols/ml
[1]; [23]
  Mb. Analyses Aerobic: 8 cols/ml
[1]; [24]
  Mb. Analyses Aerobic: 2 cols/ml
[1]; [25]
  Mb. Analyses Aerobic: No growth
[1]; [26]
  Mb. Analyses Aerobic: No growth
[1]; [27]
  Mb. Analyses Aerobic: No growth
[1]; [28]
  Mb. Analyses Aerobic: No growth
[1]; [29]
  Mb. Analyses Aerobic: 1 cols/ml
[1]; [30]
  Mb. Analyses Aerobic: No growth
[1]; before inclusion of wetting agents and other functional components
  microbiological activity 8 days after treatment (Table 2): re-established itself
Legionella pneumophilia; 100 ppm biocidal active, contact time 5 minutes
  Biocidal effect: Biocidal
Legionella pneumophilia; 100 ppm biocidal active, contact time 10 minutes
  Biocidal effect: Biocidal
Legionella pneumophilia; 100 ppm biocidal active, contact time 15 minutes
  Biocidal effect: Biocidal
Legionella pneumophilia; 100 ppm biocidal active, contact time 30 minutes
  Biocidal effect: Biocidal
Legionella pneumophilia; 200 ppm biocidal active, contact time 5 minutes
  Biocidal effect: Biocidal
Legionella pneumophilia; 200 ppm biocidal active, contact time 10 minutes
  Biocidal effect: Biocidal
Legionella pneumophilia; 200 ppm biocidal active, contact time 15 minutes
  Biocidal effect: Biocidal
Legionella pneumophilia; 200 ppm biocidal active, contact time 30 minutes
  Biocidal effect: Biocidal
Legionella pneumophilia; 300 ppm biocidal active, contact time 5 minutes
  Biocidal effect: Biocidal
Legionella pneumophilia; 300 ppm biocidal active, contact time 10 minutes
  Biocidal effect: Biocidal
Legionella pneumophilia; 300 ppm biocidal active, contact time 15 minutes
  Biocidal effect: Biocidal
Legionella pneumophilia; 300 ppm biocidal active, contact time 30 minutes
  Biocidal effect: Biocidal
Legionella pneumophilia; 500 ppm biocidal active, contact time 5 minutes
  Biocidal effect: Biocidal
Legionella pneumophilia; 500 ppm biocidal active, contact time 10 minutes
  Biocidal effect: Biocidal
Legionella pneumophilia; 500 ppm biocidal active, contact time 15 minutes
  Biocidal effect: Biocidal
Legionella pneumophilia; 500 ppm biocidal active, contact time 30 minutes
  Biocidal effect: Biocidal
Legionella pneumophilia; all concentrations (100-500 ppm), contact time as short as 5 minutes
  biocidal effect, summary of Table A: biocidal to Legionella at all concentrations
Mycobacteria
  concentration down to which effective: ≥ 0.05%
[2]
  sterilisation of shower compared with 5 parts per million of BCDMH (L8 recommendations): more effective sterilisation was achieved for a longer period
Legionella
  concentration down to which effective: ≥ 0.05%
Hepatatis
  concentration down to which effective: ≥ 0.05%
HIV
  concentration down to which effective: ≥ 0.05%
[3]; [4]
  Mb. Analyses Yeast/Mold: No growth
[3]; [5]
  Mb. Analyses Yeast/Mold: No growth
[3]; [6]
  Mb. Analyses Yeast/Mold: No growth
[3]; [7]
  Mb. Analyses Yeast/Mold: No growth
[3]; [8]
  Mb. Analyses Yeast/Mold: No growth
[3]; [9]
  Mb. Analyses Yeast/Mold: 1 yeast cols/ml
[3]; [10]
  Mb. Analyses Yeast/Mold: No growth
[3]; [11]
  Mb. Analyses Yeast/Mold: No growth
[3]; [12]
  Mb. Analyses Yeast/Mold: 1 yeast cols/ml
[3]; [13]
  Mb. Analyses Yeast/Mold: No growth
[3]; [14]
  Mb. Analyses Yeast/Mold: No growth
[3]; [15]
  Mb. Analyses Yeast/Mold: No growth
[3]; [16]
  Mb. Analyses Yeast/Mold: No growth
[3]; [17]
  Mb. Analyses Yeast/Mold: No growth
[3]; [18]
  Mb. Analyses Yeast/Mold: No growth
[3]; [19]
  Mb. Analyses Yeast/Mold: No growth
[3]; [20]
  Mb. Analyses Yeast/Mold: No growth
[3]; [21]
  Mb. Analyses Yeast/Mold: No growth
[3]; [22]
  Mb. Analyses Yeast/Mold: No growth
[3]; [23]
  Mb. Analyses Yeast/Mold: No growth
[3]; [24]
  Mb. Analyses Yeast/Mold: No growth
[3]; [25]
  Mb. Analyses Yeast/Mold: No growth
[3]; [26]
  Mb. Analyses Yeast/Mold: No growth
[3]; [27]
  Mb. Analyses Yeast/Mold: No growth
[3]; [28]
  Mb. Analyses Yeast/Mold: No growth
[3]; [29]
  Mb. Analyses Yeast/Mold: No growth
[3]; [30]
  Mb. Analyses Yeast/Mold: No growth

## CC1(C)C(=O)N(Cl)C(=O)N1Br [Omnia-Stat SP, 1-Bromo-3-chloro-5,5-dimethylhydantoin, reference compound]
[1]; [31]
  Mb. Analyses Aerobic: 480 cols/ml
[1]; [32]
  Mb. Analyses Aerobic: No growth
[1]; [33]
  Mb. Analyses Aerobic: 1 cols/ml
[1]; [34]
  Mb. Analyses Aerobic: 5 cols/ml
[1]; [35]
  Mb. Analyses Aerobic: 10 cols/ml
[1]; [36]
  Mb. Analyses Aerobic: 5 cols/ml
[1]; [37]
  Mb. Analyses Aerobic: 6 cols/ml
[1]; [38]
  Mb. Analyses Aerobic: No growth
[1]; [39]
  Mb. Analyses Aerobic: No growth
[1]; [40]
  Mb. Analyses Aerobic: 2600 cols/ml
[1]; [41]
  Mb. Analyses Aerobic: 3 cols/ml
[1]; [42]
  Mb. Analyses Aerobic: 3 cols/ml
[1]; [43]
  Mb. Analyses Aerobic: 5 cols/ml
[1]; [44]
  Mb. Analyses Aerobic: 9 cols/ml
[1]; [45]
  Mb. Analyses Aerobic: 2 cols/ml
[1]; [46]
  Mb. Analyses Aerobic: 10 cols/ml
[1]; [47]
  Mb. Analyses Aerobic: 6 cols/ml
[1]; [48]
  Mb. Analyses Aerobic: No growth
[1]; shower after 19 days resting, 5 ppm
  microbiological recovery after two days compared with the basic product (Table 3): considerably greater
[3]; [31]
  Mb. Analyses Yeast/Mold: No growth
[3]; [32]
  Mb. Analyses Yeast/Mold: No growth
[3]; [33]
  Mb. Analyses Yeast/Mold: No growth
[3]; [34]
  Mb. Analyses Yeast/Mold: 4 yeast cols/ml
[3]; [35]
  Mb. Analyses Yeast/Mold: 7 yeast cols/ml
[3]; [36]
  Mb. Analyses Yeast/Mold: 3 yeast cols/ml
[3]; [37]
  Mb. Analyses Yeast/Mold: 5 yeast cols/ml
[3]; [38]
  Mb. Analyses Yeast/Mold: No growth
[3]; [39]
  Mb. Analyses Yeast/Mold: No growth
[3]; [40]
  Mb. Analyses Yeast/Mold: 9 yeast cols/ml
[3]; [41]
  Mb. Analyses Yeast/Mold: 8 yeast cols/ml
[3]; [42]
  Mb. Analyses Yeast/Mold: 6 yeast cols/ml
[3]; [43]
  Mb. Analyses Yeast/Mold: 19 yeast cols/ml
[3]; [44]
  Mb. Analyses Yeast/Mold: No growth
[3]; [45]
  Mb. Analyses Yeast/Mold: 6 yeast cols/ml
[3]; [46]
  Mb. Analyses Yeast/Mold: No growth
[3]; [47]
  Mb. Analyses Yeast/Mold: 10 yeast cols/ml
[3]; [48]
  Mb. Analyses Yeast/Mold: 5 yeast cols/ml
